Data as given in PubChem BioAssay (NCI).
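Tested at 5 concentrations; 48 h exposure; 96-well plates; endpoints linearly interpolated, else capped at highest concentration. At the GI50, growth is halved. Definition used: TGI = concentration required for complete inhibition of growth.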

Experiments:
Assay in all cases: NCI tumour cell line growth inhibition, 48 h
SW-620 colon = system: SW-620 colon
NCI-H23 lung = system: NCI-H23 lung
NCI-H226 lung = system: NCI-H226 lung
HOP-62 NSCLC = system: HOP-62 NSCLC
A498 renal = system: A498 renal
HOP-92 NSCLC = system: HOP-92 NSCLC
UO-31 renal = system: UO-31 renal
SK-MEL-28 melanoma = system: SK-MEL-28 melanoma
ACHN renal = system: ACHN renal
CCRF-CEM leukemia = system: CCRF-CEM leukemia
CAKI-1 renal = system: CAKI-1 renal
IGROV1 ovarian = system: IGROV1 ovarian
OVCAR-5 ovarian = system: OVCAR-5 ovarian
HCT-15 colon = system: HCT-15 colon
TK-10 renal = system: TK-10 renal
A549 NSCLC = system: A549 NSCLC
RXF 393 renal = system: RXF 393 renal
HT29 colon = system: HT29 colon
EKVX NSCLC = system: EKVX NSCLC
MDA-MB-435 = system: MDA-MB-435
HS 578T breast = system: HS 578T breast
MDA-MB-231 breast = system: MDA-MB-231 breast
NCI-H460 lung = system: NCI-H460 lung
SK-MEL-5 melanoma = system: SK-MEL-5 melanoma
PC-3 prostate = system: PC-3 prostate
SNB-75 CNS = system: SNB-75 CNS
COLO 205 colon = system: COLO 205 colon
UACC-62 melanoma = system: UACC-62 melanoma
HL-60(TB) leukemia = system: HL-60(TB) leukemia
T-47D breast = system: T-47D breast
786-0 renal = system: 786-0 renal
NCI/ADR-RES ovarian = system: NCI/ADR-RES ovarian
BT-549 breast = system: BT-549 breast
M14 melanoma = system: M14 melanoma
K-562 leukemia = system: K-562 leukemia
OVCAR-8 ovarian = system: OVCAR-8 ovarian
SK-MEL-2 melanoma = system: SK-MEL-2 melanoma
SNB-19 CNS = system: SNB-19 CNS
SF-295 CNS = system: SF-295 CNS
LOX IMVI melanoma = system: LOX IMVI melanoma
UACC-257 melanoma = system: UACC-257 melanoma
MCF7 breast = system: MCF7 breast
RPMI-8226 leukemia = system: RPMI-8226 leukemia
U251 CNS = system: U251 CNS
MOLT-4 leukemia = system: MOLT-4 leukemia
MALME-3M melanoma = system: MALME-3M melanoma
OVCAR-3 ovarian = system: OVCAR-3 ovarian
SF-539 CNS = system: SF-539 CNS
SF-268 CNS = system: SF-268 CNS
DU-145 prostate = system: DU-145 prostate
SK-OV-3 ovarian = system: SK-OV-3 ovarian
HCC-2998 colon = system: HCC-2998 colon
OVCAR-4 ovarian = system: OVCAR-4 ovarian
HCT-116 colon = system: HCT-116 colon
KM12 colon = system: KM12 colon
SN12C renal = system: SN12C renal
NCI-H522 lung = system: NCI-H522 lung

O=S(=O)(c1ccccc1)n1c(C(O)c2ccccc2)cc2ccccc21 (stereo not given)
TGI (SW-620 colon): 64.7 µM
TGI (NCI-H23 lung): 41.9 µM
TGI (NCI-H226 lung): 29.3 µM
TGI (HOP-62 NSCLC): 31.8 µM
TGI (A498 renal): 26.5 µM
TGI (HOP-92 NSCLC): 38.4 µM
TGI (UO-31 renal): 24 µM
TGI (SK-MEL-28 melanoma): 39.9 µM
TGI (ACHN renal): 29.1 µM
TGI (CCRF-CEM leukemia): 28.9 µM
TGI (CAKI-1 renal): 47.3 µM
TGI (IGROV1 ovarian): 35.4 µM
TGI (OVCAR-5 ovarian): 30.9 µM
TGI (HCT-15 colon): 61.3 µM
TGI (TK-10 renal): 33.6 µM
TGI (A549 NSCLC): 35.3 µM
TGI (RXF 393 renal): 30.5 µM
TGI (HT29 colon): 26.2 µM
TGI (EKVX NSCLC): 41.6 µM
TGI (MDA-MB-435): 36.4 µM
TGI (HS 578T breast): 27.9 µM
TGI (MDA-MB-231 breast): 49.2 µM
TGI (NCI-H460 lung): > 100 µM
TGI (SK-MEL-5 melanoma): 32.4 µM
TGI (PC-3 prostate): 30.2 µM
TGI (SNB-75 CNS): 35.7 µM
TGI (COLO 205 colon): 45.5 µM
TGI (UACC-62 melanoma): 28 µM
TGI (HL-60(TB) leukemia): 34.9 µM
TGI (T-47D breast): 65.8 µM
TGI (786-0 renal): 29.6 µM
TGI (NCI/ADR-RES ovarian): 30.3 µM
TGI (BT-549 breast): 32.2 µM
TGI (M14 melanoma): 28.1 µM
TGI (K-562 leukemia): > 100 µM
TGI (OVCAR-8 ovarian): 49.9 µM
TGI (SK-MEL-2 melanoma): 31.3 µM
TGI (SNB-19 CNS): 26.7 µM
TGI (SF-295 CNS): 32.2 µM
TGI (LOX IMVI melanoma): > 100 µM
TGI (UACC-257 melanoma): 34.4 µM
TGI (MCF7 breast): 40.9 µM
TGI (RPMI-8226 leukemia): > 100 µM
TGI (U251 CNS): 43.7 µM
TGI (MOLT-4 leukemia): > 100 µM
TGI (MALME-3M melanoma): 39.2 µM
TGI (OVCAR-3 ovarian): 30.3 µM
TGI (SF-539 CNS): 30.8 µM
TGI (SF-268 CNS): 38.5 µM
TGI (DU-145 prostate): > 100 µM
TGI (SK-OV-3 ovarian): 29 µM
TGI (HCC-2998 colon): 33.2 µM
TGI (OVCAR-4 ovarian): 50.2 µM
TGI (HCT-116 colon): 34.6 µM
TGI (KM12 colon): 30.3 µM

COc1cc2c3c(n(CCCNC4=NCCS4)c(=O)c2cc1OC)-c1cc2c(cc1C3=O)OCO2
GI50 (NCI-H23 lung): < 0.0123 µM
TGI (NCI-H23 lung): 0.128 µM
GI50 (NCI-H226 lung): 0.0456 µM
TGI (NCI-H226 lung): 0.913 µM
GI50 (HOP-62 NSCLC): < 0.01 µM
GI50 (A498 renal): 1.52 µM
TGI (A498 renal): 7.68 µM
TGI (HOP-92 NSCLC): 1.95 µM
GI50 (UO-31 renal): 0.147 µM
TGI (UO-31 renal): > 100 µM
GI50 (SK-MEL-28 melanoma): 1.12 µM
TGI (SK-MEL-28 melanoma): 3.21 µM
GI50 (ACHN renal): < 0.01 µM
TGI (ACHN renal): 0.135 µM
GI50 (CCRF-CEM leukemia): < 0.01 µM
GI50 (CAKI-1 renal): < 0.01 µM
TGI (CAKI-1 renal): 0.749 µM
GI50 (IGROV1 ovarian): 0.197 µM
TGI (IGROV1 ovarian): > 100 µM
GI50 (OVCAR-5 ovarian): 0.668 µM
TGI (OVCAR-5 ovarian): 2.08 µM
GI50 (HCT-15 colon): 0.823 µM
TGI (HCT-15 colon): 3.67 µM
GI50 (TK-10 renal): 4.59 µM
TGI (TK-10 renal): 10.6 µM
GI50 (A549 NSCLC): < 0.01 µM
TGI (A549 NSCLC): 1.33 µM
GI50 (HT29 colon): < 0.0347 µM
TGI (HT29 colon): 0.756 µM
GI50 (EKVX NSCLC): 1.79 µM
TGI (EKVX NSCLC): 8.8 µM
TGI (MDA-MB-435): 1.83 µM
GI50 (HS 578T breast): 1.4 µM
TGI (HS 578T breast): 3.85 µM
GI50 (MDA-MB-231 breast): 0.465 µM
TGI (MDA-MB-231 breast): 1.02 µM
GI50 (SK-MEL-5 melanoma): 0.236 µM
TGI (SK-MEL-5 melanoma): 2.23 µM
GI50 (PC-3 prostate): 0.722 µM
TGI (PC-3 prostate): 3.51 µM
TGI (SNB-75 CNS): 1.44 µM
TGI (COLO 205 colon): 4.09 µM
GI50 (UACC-62 melanoma): 0.0559 µM
TGI (UACC-62 melanoma): 1.66 µM
GI50 (HL-60(TB) leukemia): 0.142 µM
TGI (T-47D breast): 2.7 µM
GI50 (786-0 renal): < 0.01 µM
TGI (786-0 renal): 0.0371 µM
GI50 (NCI/ADR-RES ovarian): < 0.0183 µM
TGI (NCI/ADR-RES ovarian): 0.319 µM
GI50 (BT-549 breast): 1.73 µM
TGI (BT-549 breast): 9.3 µM
GI50 (M14 melanoma): < 0.01 µM
TGI (M14 melanoma): 0.201 µM
GI50 (K-562 leukemia): < 0.01 µM
TGI (K-562 leukemia): 0.631 µM
TGI (OVCAR-8 ovarian): 2.11 µM
GI50 (SK-MEL-2 melanoma): 9.98 µM
TGI (SK-MEL-2 melanoma): > 80.6 µM
GI50 (SNB-19 CNS): 1.03 µM
TGI (SNB-19 CNS): > 100 µM
GI50 (SF-295 CNS): < 0.01 µM
TGI (SF-295 CNS): 1.42 µM
GI50 (LOX IMVI melanoma): < 0.01 µM
TGI (LOX IMVI melanoma): 0.232 µM
GI50 (UACC-257 melanoma): 1.21 µM
TGI (UACC-257 melanoma): 5.67 µM
GI50 (MCF7 breast): < 0.01 µM
GI50 (RPMI-8226 leukemia): < 0.0145 µM
TGI (RPMI-8226 leukemia): 0.296 µM
GI50 (U251 CNS): < 0.01 µM
TGI (U251 CNS): 0.197 µM
GI50 (MOLT-4 leukemia): < 0.01 µM
GI50 (MALME-3M melanoma): 1.44 µM
TGI (MALME-3M melanoma): 5.41 µM
GI50 (SN12C renal): < 0.0255 µM
TGI (SN12C renal): 0.408 µM
GI50 (OVCAR-3 ovarian): 0.203 µM
TGI (OVCAR-3 ovarian): 2.09 µM
GI50 (SF-539 CNS): < 0.0122 µM
TGI (SF-539 CNS): 0.283 µM
GI50 (SF-268 CNS): 0.188 µM
TGI (SF-268 CNS): 5.19 µM
GI50 (DU-145 prostate): < 0.01 µM
TGI (DU-145 prostate): 1.31 µM
TGI (SK-OV-3 ovarian): 3.18 µM
GI50 (HCC-2998 colon): < 0.01 µM
GI50 (OVCAR-4 ovarian): 1.82 µM
TGI (OVCAR-4 ovarian): 6.1 µM
GI50 (HCT-116 colon): < 0.01 µM
TGI (HCT-116 colon): 0.127 µM
GI50 (NCI-H522 lung): 0.174 µM
TGI (NCI-H522 lung): > 56.2 µM
GI50 (KM12 colon): 1.11 µM
TGI (KM12 colon): 3.11 µM
